In one data set the target is T1, peptide βA1-42 (Homo sapiens, UniProt P05067).
T1 construct: The β-A(1-42) was dissolved in a mixture of Acetonitrile and distilled water
The data set is described as follows: Anti-aggregating activity on peptide βA1-42, thioflavin T fluorescence. The class given is biochemical. The settings on record: thioflavin T binding, aggregate + non aggregate β-A(1-42), 37° C., 24 hours; read-out: IC50 (dose reducing the aggregate formation of the 50%). How it is done:
The anti-aggregating activity of the compound of formula (I) on the peptide βA1-42 is carried out via the binding of the thioflavin T according to the following procedure.
The β-A(1-42) was dissolved in a mixture of Acetonitrile and distilled water (CH3CN/H2O 1:1) to the final concentration of 1 mg/mL. The solution was divided in aliquots of 2 mL and stored at −80° C. until the use. The work solution was prepared diluting the stock solution five times with H2O (final concentration 44 μmol/L).
The β-A(1-42) was dissolved in a mixture of Acetonitrile and distilled water (CH3CN/H2O 1:1) to the final concentration of 1 mg/mL. An aliquot of 2 mL was freeze-dried to eliminate the trifluoroacetic acid residual of the peptide synthesis. The β-A(1-42) peptide was subsequently dissolved in 0.1 mL of DMSO and 5.0 mL of 2×PBS, pH 7.4. Once dissolved the β-A(1-42) was incubated to 37° C. for 8 days, at the end, after sonication, it was diluted five times with 2×PBS (final concentration 17.4 μmol/L). Waiting to be used, the aggregate β-A(1-42) was divided in aliquots and stored at −80° C.
Fluorescence Measurement with Thioflavin T
Scheme of added volumes in 96-well plates:
The assay was performed in triplicate in 96-well plates as reported above in scheme. Test compounds were added in the wells containing the aggregate β-A(1-42) then, 15 after minutes, the non-aggregate β-A(1-42) was added. The 96-well plates were incubated at 37° C. under agitation for 24 hours.
The following day, a volume of 200 μL of a solution containing 10 μmol/L thioflavin T and 50 μmol/L Na2HPO4 pH 6.5 was added to each well. Fluorescence was measured in a VICTOR 2 (WALLAC) fluorescence spectrophotometer (λex=450 nm, λem=486 nm) (Findelis M. A et al).
The data were expressed as percent of residual aggregated β-A and, when possible, the dose reducing the aggregate formation of the 50% (IC50) was estimate.
The % of aggregation was determinated by the following formula:
(βAmyloid+Test compound)−(Blank+Test compound)×100

Data set [1] in a line: Blood brain barrier crossing: plasma and brain concentrations after s.c. injection. The class given is in vivo. The settings on record: mice, s.c. 25 mg/kg. As for the experimental part:
In order to obtain basic information on the concentration achieved in brain of rodents after parental doses and their relationship with plasma concentrations, mice and rats were used. […] Compounds were determined in plasma by high-performance liquid chromatography (HPLC) after a solid liquid extraction procedure. Briefly, Oasis HLB 1 cc cartridges were pre-wetted with methanol and distilled water. Then internal standard, mouse plasma or rat plasma were added and the cartridges were washed with mater-methanoland methanol, interrupting the vacuum before the column was completely dry after each passage. The compound was removed by eluiting the cartridges with methanol and evaporated to dryness under nitrogen. The residue was dissolved in the mobile phase centrifuged and analyzed by HPLC with UV detection (224 nm).
Separation was done on a pBondapack C18 column protected by a LiChrosphere RP-8 pre-column at room temperature. The mobile phase was CH3CN:CH3OH:0.001M KH2PO4 (40:10:50 v/v) delivered at a flow rate of 1.2 mL/min.
Brain tissue was homogenized (1 g/10 ml) in CH3CN:0.001M phosphate buffer, pH 7.4 and a volume containing approximately 100 mg of tissue was centrifuged. The supernatant was processed as for plasma.
Mean brain and plasma area under the concentration-time curve (AUCt) were determined using the linear trapezoidal rule and extrapolated to infinity (AUC) by the concentration method. The elimination rate constant was calculated by least squares regression analysis of the terminal log-linear portion of the plasma and the brain drug concentration curves. The maximum concentration (Cmax) and the time (tmax) of its occurrence were read directly from the plasma and brain concentration time data.

Where a name gives a salt, the structure may show the parent alone. Read-outs that look alike come from different tables or passages of the source.

T1 sequence (P05067 672-713): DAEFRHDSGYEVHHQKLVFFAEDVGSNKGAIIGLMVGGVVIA

In general, IC50 refers to the point on the concentration scale where inhibition reaches its midpoint. `Oc1ccc(Nc2ccccc2)c2ccccc12` [ST2176, 4-anilino-1-naphthol]: the IC50 on peptide βA1-42 came out at 5.43 µM.
As to `Oc1ccc(Nc2ccc(O)c3ccccc23)cc1` [ST2177, 4-(4-hydroxyanilino)-1-naphthol], the IC50 on peptide βA1-42 stood at 1 µM.
For `Oc1ccc2ccccc2c1Cc1c(O)ccc2ccccc12` [ST1859, 1-[(2-hydroxy-1-naphthyl)methyl]-2-naphthol, reference compound], the IC50 on peptide βA1-42 was determined as 23.5 µM.
By Tmax is commonly meant the time at which the peak concentration occurs. What is called Cmax is the highest concentration seen after dosing. In the case of `COc1ccc(Nc2ccc(OC)c3ccccc23)cc1` [ST2175, 4-methoxy-N-(4-methoxyphenyl)-1-naphthalenamine], the concentration for half-maximal inhibition (IC50) at peptide βA1-42 came out at 5.59 µM. Further, the “Cmax, Brain” value in data set [1] (brain) was 410 ng/mL or L. Further, the “AUCt, Brain” value in data set [1] (brain, linear trapezoidal rule) is listed as 1643 ng/L · h or g. Further, the Kp at 0.25 h in data set [1] (mouse, brain, sc, 25 mg/kg, 15 min, read-out: Brain to Plasma ratio) is 2.3. In addition, the Kp at 0.5 h in data set [1] (mouse, brain, sc, 25 mg/kg, 30 min, read-out: Brain to Plasma ratio) came out at 3.6. Also, the Kp at 1 h in data set [1] (mouse, brain, sc, 25 mg/kg, 60 min, read-out: Brain to Plasma ratio) was 2.5. Besides, the Kp at 2 h in data set [1] (mouse, brain, sc, 25 mg/kg, 120 min, read-out: Brain to Plasma ratio) is 2. Besides, the Kp at 3 h in data set [1] (mouse, brain, sc, 25 mg/kg, 180 min, read-out: Brain to Plasma ratio) is 1.8. Further, in data set [1] (mouse, brain, sc, 25 mg/kg, 240 min, read-out: Brain to Plasma ratio), the Kp at 4 h was 1.3. For the same compound, the Kp at 6 h in data set [1] (mouse, brain, sc, 25 mg/kg, 360 min, read-out: Brain to Plasma ratio) turned out to be 1.7. Also, the Kp was determined as 1.9 in data set [1] (mouse, brain, sc, 25 mg/kg, read-out: AUCt, Brain to Plasma ratio) and 2.5 in data set [1] (mouse, brain, sc, 25 mg/kg, read-out: Cmax, Brain to Plasma ratio). The concentration at 15 min in data set [1] (mouse, brain, sc, 15 min, read-out: Brain (mean ± SD)) amounted to 321 ± 130 ng/g; in data set [1] (mouse, plasma, sc, 15 min, read-out: Plasma (mean ± SD)), 138 ng/mL. Also, the concentration at 30 min in data set [1] (mouse, brain, sc, 30 min, read-out: Brain (mean ± SD)) amounted to 398 ± 269 ng/g; in data set [1] (mouse, plasma, sc, 30 min, read-out: Plasma (mean ± SD)) it was 109 ng/mL. For the same compound, the concentration at 60 min in data set [1] (mouse, brain, sc, 60 min, read-out: Brain (mean ± SD)) came out at 410 ± 192 ng/g; in data set [1] (mouse, plasma, sc, 60 min, read-out: Plasma (mean ± SD)) it was 164 ± 18 ng/mL. The concentration at 120 min in data set [1] (mouse, brain, sc, 120 min, read-out: Brain (mean ± SD)) was determined as 289 ± 61 ng/g; in data set [1] (mouse, plasma, sc, 120 min, read-out: Plasma (mean ± SD)), 142 ± 16 ng/mL. Also, the concentration at 180 min in data set [1] (mouse, brain, sc, 180 min, read-out: Brain (mean ± SD)) turned out to be 253 ± 77 ng/g; in data set [1] (mouse, plasma, sc, 180 min, read-out: Plasma (mean ± SD)), 139 ± 31 ng/mL. The concentration at 240 min was determined as 220 ± 61 ng/g in data set [1] (mouse, brain, sc, 240 min, read-out: Brain (mean ± SD)) and 159 ± 38 ng/mL in data set [1] (mouse, plasma, sc, 240 min, read-out: Plasma (mean ± SD)). For the same compound, the concentration at 360 min in data set [1] (mouse, brain, sc, 360 min, read-out: Brain (mean ± SD)) came to 232 ± 94 ng/g; in data set [1] (mouse, plasma, sc, 360 min, read-out: Plasma (mean ± SD)) it was 130 ± 13 ng/mL. In addition, the time of peak concentration (Tmax) in data set [1] (mouse, sc, brain, read-out: tmax, Brain (converted)) was 1 h; in data set [1] (mouse, sc, plasma, read-out: tmax, Plasma (converted)) it was 1 h. The same compound displayed a Cmax in data set [1] (mouse, sc, plasma) of 164 ng/mL. The AUC(0-t) in data set [1] (mouse, sc, plasma, linear trapezoidal rule, read-out: AUCt, Plasma) amounted to 850 ng·h/mL.
By melting point is commonly meant the temperature, or range, at which the solid turns liquid. `COC(=O)c1ccc(Nc2ccc(O)c3ccccc23)cc1` [ST2178, methyl 4-[(4-hydroxy-1-naphthyl)amino]benzoate] displayed a melting point of 188 to 190 °C. The half-inhibitory concentration (IC50) at peptide βA1-42 is 5.13 µM.
For the compound `O=C(O)c1ccccc1Nc1c(O)ccc2ccccc12` [ST2757, 2-[(2-hydroxy-1-naphthyl)amino]benzoic acid], the IC50 on peptide βA1-42 is 14.1 µM.
Regarding `COc1ccc2ccccc2c1Nc1c(OC)ccc2ccccc12` [ST2761, 2-methoxy-N-(2-methoxy-1-naphthyl)naphthalen-1-amine], the IC50 at peptide βA1-42 was determined as 5.7 µM.
On to `COc1ccc(Nc2ccc(OC)c3ccccc23)cc1C(=O)O` [ST2174, 2-methoxy-5-[(4-methoxy-1-naphthyl)amino]benzoic acid], for which the melting point is 153 to 154 °C.
The compound `COc1ccccc1Nc1ccc(OC)c2ccccc12` [ST2879, N-(4-methoxy-1-naphthyl)-N-(2-methoxyphenyl)amine] had a melting point of 108 to 110 °C.
As to `COc1ccc(Nc2ccc([N+](=O)[O-])c3ccccc23)cc1` [ST3451, N-(4-methoxyphenyl)-4-nitronaphthalen-1-amine], the IC50 at peptide βA1-42 turned out to be 2.7 µM.
Same read-out and setting: in the case of `CSc1ccc(Nc2ccc(N(C)C)c3ccccc23)cc1` [ST3458, N,N-dimethyl-N′-[4-(methylthio)phenyl]naphthalene-1,4-diamine dihydrochloride] it was 2.2 µM.
The compound `COc1ccc(Nc2ccccc2)c2ccccc12` [ST2173, 4-methoxy-N-phenyl-1-naphthalenamine] displayed a melting point of 141 to 143 °C.
`Oc1c(Nc2ccccc2)ccc2ccccc12` [ST2762, 1-hydroxy-N-phenylnaphthalen-2-aminiumchloride]: the half-maximal inhibitory concentration (IC50) at peptide βA1-42 worked out at 2.4 µM.
Regarding `Oc1ccc(Sc2ccc(O)c3ccccc23)cc1` [ST3501, 4-[(4-hydroxyphenyl)thio]-1-naphthol], the 50% inhibitory concentration (IC50) on peptide βA1-42 was 7.2 µM.
As to `O=C(O)c1ccc(Nc2ccc3ccccc3c2O)cc1` [ST3459, 4-[(1-hydroxy-2-naphthyl)amino]benzoic acid], the half-maximal inhibitory concentration (IC50) on peptide βA1-42 came to 2.6 µM.

The values above are taken from US20080255232A1, “Naphthyl Derivatives as Inhibitors of Beta-Amyloid Aggregation” (SIGMA-TAU INDUSTRIE FARMACEUTICHE RIUNITE S.P.A., priority 2005, published 2008).
